The record followed here is publication PMC6925601 (European journal of medicinal chemistry, 2019).

In series [1] the target is T1, human neutrophil elastase (HNE) (Homo sapiens, UniProt P08246).
T1 sequence (P08246 30-247 limits assumed): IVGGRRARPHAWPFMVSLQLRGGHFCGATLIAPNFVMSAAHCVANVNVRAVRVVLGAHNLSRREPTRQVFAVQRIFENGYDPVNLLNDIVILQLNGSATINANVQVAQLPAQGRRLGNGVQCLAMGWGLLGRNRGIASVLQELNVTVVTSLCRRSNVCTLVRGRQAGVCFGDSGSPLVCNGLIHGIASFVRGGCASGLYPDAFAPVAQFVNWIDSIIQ
In words: HNE inhibitory assay. The series is classed as biochemical.

Series [2] addresses T2, MKK7 (Homo sapiens, UniProt O14733).
T2 sequence (O14733 1-419): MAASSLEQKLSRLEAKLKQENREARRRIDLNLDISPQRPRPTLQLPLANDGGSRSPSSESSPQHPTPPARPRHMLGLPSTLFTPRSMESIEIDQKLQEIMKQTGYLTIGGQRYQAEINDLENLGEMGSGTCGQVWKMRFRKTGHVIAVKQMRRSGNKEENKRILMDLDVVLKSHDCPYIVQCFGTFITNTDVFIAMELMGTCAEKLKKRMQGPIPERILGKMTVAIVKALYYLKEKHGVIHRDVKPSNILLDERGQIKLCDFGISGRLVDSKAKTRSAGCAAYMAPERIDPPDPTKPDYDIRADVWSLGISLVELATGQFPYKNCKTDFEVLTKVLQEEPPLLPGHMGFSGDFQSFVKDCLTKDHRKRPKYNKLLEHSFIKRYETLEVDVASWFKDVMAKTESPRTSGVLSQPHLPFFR
Put plainly: KINOMEscan kinase binding assay. Particulars: for Kd (μM) vs MKK7: KINOMEscan, duplicate, maximum concentration 30 μM.

The subject of series [3] is nine tumor cell lines and primary PBMCs. Put plainly: Cytotoxicity across the panel of nine tumor cell lines and PBMCs. The class given is cell-based, human. Particulars: 24 h; for IC50: Homo sapiens, PBMC, read-out: cytotoxic activity IC50 for most of the cell lines.
The target in series [4] is T3, MKK4 (Homo sapiens, UniProt P45985).
T3 sequence (P45985 1-399): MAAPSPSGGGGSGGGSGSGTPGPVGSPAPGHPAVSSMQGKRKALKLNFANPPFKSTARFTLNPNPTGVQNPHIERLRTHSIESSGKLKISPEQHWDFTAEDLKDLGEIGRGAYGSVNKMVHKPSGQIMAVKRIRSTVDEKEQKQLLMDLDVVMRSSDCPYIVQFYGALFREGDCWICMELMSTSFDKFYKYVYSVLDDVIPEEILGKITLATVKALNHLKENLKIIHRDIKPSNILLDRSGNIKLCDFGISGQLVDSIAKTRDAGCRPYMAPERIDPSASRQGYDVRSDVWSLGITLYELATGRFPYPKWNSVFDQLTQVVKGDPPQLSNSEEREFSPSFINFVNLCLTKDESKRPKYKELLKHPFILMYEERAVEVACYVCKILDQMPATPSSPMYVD
Put plainly: KINOMEscan kinase binding assay. Conditions: for Kd for MKK4: KINOMEscan, data not shown.

The target of series [5] is T4, Cdc25A (Homo sapiens, UniProt P30304).
T4 sequence (P30304 1-524): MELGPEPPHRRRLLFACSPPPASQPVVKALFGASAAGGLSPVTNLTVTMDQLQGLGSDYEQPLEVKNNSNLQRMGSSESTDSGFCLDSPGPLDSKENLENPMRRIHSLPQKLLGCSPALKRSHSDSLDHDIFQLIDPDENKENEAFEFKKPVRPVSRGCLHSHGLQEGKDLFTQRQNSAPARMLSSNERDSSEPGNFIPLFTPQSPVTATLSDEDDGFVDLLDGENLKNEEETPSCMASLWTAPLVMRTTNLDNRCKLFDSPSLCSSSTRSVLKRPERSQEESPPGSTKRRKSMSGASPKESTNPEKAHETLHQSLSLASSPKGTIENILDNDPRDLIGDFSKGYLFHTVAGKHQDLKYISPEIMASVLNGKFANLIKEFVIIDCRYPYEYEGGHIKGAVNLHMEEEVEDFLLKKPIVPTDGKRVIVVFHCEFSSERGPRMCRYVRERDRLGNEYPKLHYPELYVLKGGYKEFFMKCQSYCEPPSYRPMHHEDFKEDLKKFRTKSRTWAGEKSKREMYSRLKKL
In words: CycLex Cdc25A fluorometric phosphatase inhibition assay. The series is classed as biochemical.

Series [6] has as its target T5, Cdc25B (Homo sapiens, UniProt P30305).
T5 sequence (P30305 1-580): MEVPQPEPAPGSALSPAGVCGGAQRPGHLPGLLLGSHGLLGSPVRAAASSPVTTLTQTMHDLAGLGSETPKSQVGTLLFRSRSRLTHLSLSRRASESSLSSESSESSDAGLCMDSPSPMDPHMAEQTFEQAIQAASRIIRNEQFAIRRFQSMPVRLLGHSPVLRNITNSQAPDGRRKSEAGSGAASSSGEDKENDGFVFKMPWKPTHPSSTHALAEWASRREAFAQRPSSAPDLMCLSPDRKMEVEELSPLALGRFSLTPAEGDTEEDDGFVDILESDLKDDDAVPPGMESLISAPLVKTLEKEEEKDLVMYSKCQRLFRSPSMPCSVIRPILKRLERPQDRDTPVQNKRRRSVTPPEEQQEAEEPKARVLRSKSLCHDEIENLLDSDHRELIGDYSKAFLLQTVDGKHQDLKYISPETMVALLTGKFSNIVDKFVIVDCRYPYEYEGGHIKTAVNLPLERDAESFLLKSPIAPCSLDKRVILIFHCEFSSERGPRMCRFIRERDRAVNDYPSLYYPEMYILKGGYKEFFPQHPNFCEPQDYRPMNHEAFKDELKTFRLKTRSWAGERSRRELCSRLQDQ
Put plainly: CycLex Cdc25B fluorometric phosphatase inhibition assay. The class given is biochemical.

As a reminder, the IC50 is the midpoint of a concentration-inhibition curve. For orientation: Kd means the free concentration of one partner at which half of the binding sites on the other are occupied at equilibrium, for simple one-to-one binding. In series [1], `CC(C)=CC[C@@H](O)C1=CC(=O)c2c(O)ccc(O)c2C1=O` [Compound 1, Shikonin] had a half-maximal inhibitory concentration (IC50) of over 50 µM. Also, in series [2], the Kd was over 30 µM and the “Kd (μM) vs MKK7” value is “did not bind”.
Regarding `CC1=CC(=O)c2c(O)cccc2C1=O` [Compound 2, Plumbagin, reference compound], the figures for the concentration for half-maximal inhibition (IC50) in series [1] and in series [3] were over 50 µM and under 10 µM, respectively.
In the case of `O=C1C(SCCO)=C(SCCO)C(=O)c2ccccc21` [Compound 4, 2,3-bis-[(2-hydroxyethyl)thio]-1,4-naphthoquinone, reference compound], the IC50 in series [1] is over 50 µM; in series [3], under 10 µM. Also, in series [2], the “Kd (μM) vs MKK7” value was “in the micromolar range”. For the same compound, the “Kd for MKK4” value in series [4] is recorded as “No MKK4 binding affinity”.
With `CC1=C(SCCO)C(=O)c2ccccc2C1=O` [Compound 5, reference compound], in series [1], the IC50 was over 50 µM. The Kd in series [2] was over 30 µM.
Take `O=C(O)CSC1=CC(=O)c2ccccc2C1=O` [Compound 6]: the IC50 in series [1] was over 50 µM. In addition, the “cytotoxicity toward tumor cell lines and PBMCs (in words)” value in series [3] (up to 50 μM) was “weakly active or inactive”. The Kd in series [4] was determined as 19.5 ± 0.7 µM.
Take `O=C(O)CCSC1=CC(=O)c2ccccc2C1=O` [Compound 7, 3-[(1,4-dioxonaphthalen-2-yl)sulfanyl]propanoic acid]: the IC50 in series [1] is over 50 µM. Moreover, the “fold more active than 6 (MKK7)” value in series [2] (compared with compound 6) came to 6 fold. The “Kd for MKK4” value in series [4] is reported as “No MKK4 binding affinity”.
Take `CC(SC1=CC(=O)c2ccccc2C1=O)C(=O)O` (centres unmarked) [Compound 8]: the “Kd for MKK4” value in series [4] is listed as “No MKK4 binding affinity”.
The compound `CC1=C(SCCC(=O)O)C(=O)c2ccccc2C1=O` [Compound 9, vitamin ks-II, reference compound] returned an IC50 in series [1] of over 50 µM.
`CCSC1=C(C)C(=O)c2ccccc2C1=O` [Compound 10]: the 50% inhibitory concentration (IC50) in series [1] is over 50 µM; in series [3] it was under 10 µM.
On the same counts, the results for `COCCSC1=C(C)C(=O)c2ccccc2C1=O` [Compound 11] are over 50 µM and under 10 µM.
As to `CC1=C(SC(C)C)C(=O)c2ccccc2C1=O` [Compound 12], the values for the half-maximal inhibitory concentration (IC50) in series [1] and in series [3] were over 50 µM and under 10 µM, respectively.
On the same counts, the results for `CSC1=C(SC)C(=O)c2ccccc2C1=O` [Compound 13] are over 50 µM and under 10 µM.
Turning to `COC1=C(OC)C(=O)c2ccccc2C1=O` [Compound 15], the 50% inhibitory concentration (IC50) in series [1] is over 50 µM. Also, in series [2], the “Kd (μM) vs MKK7” value is “almost complete loss of binding affinity”.
In the case of `COC1=CC(=O)c2ccccc2C1=O` [Compound 16], the IC50 in series [1] is over 50 µM.
Compound `CC1=CC(=O)c2ccccc2C1=O` [Compound 18, menadione, reference compound] displayed an IC50 in series [1] of over 50 µM. In series [3], the half-inhibitory concentration (IC50) is under 10 µM. Further, in series [2], the Kd was over 30 µM and the “Kd (μM) vs MKK7” value was “did not bind”.
`O=C1C(O)=C(CN(CCCl)CCCl)C(=O)c2ccccc21` [Compound 19]: the IC50 in series [1] was over 50 µM.
`CC(C)(C)[C@H]1CC[C@H](CC2=C(O)C(=O)c3ccccc3C2=O)CC1` [Compound 21, buparvaquone, reference compound] returned a concentration for half-maximal inhibition (IC50) in series [5] of over 50 µM. The compound further gave a concentration for half-maximal inhibition (IC50) in series [1] of over 50 µM. In series [2], the Kd was over 30 µM and the “Kd (μM) vs MKK7” value is on record as “did not bind”.
With `O=C(O)CNC1=C(Cl)C(=O)c2ccccc2C1=O` [Compound 22a, (3-Chloro-1,4-dioxo-1,4-dihydro-naphthalen-2-ylamino)-acetic acid], the IC50 in series [6] and in series [1] was over 50 µM throughout.
In series [1], `O=C(O)CCCNC1=C(Cl)C(=O)c2ccccc2C1=O` [Compound 22c, 4-(3-Chloro-1,4-dioxo-1,4-dihydro-naphthalen-2-ylamino)-butyric acid] gave an IC50 of over 50 µM.
As for `O=C(O)c1cccc(NC2=C(Cl)C(=O)c3ccccc3C2=O)c1` [Compound 22e, 3-(3-Chloro-1,4-dioxo-1,4-dihydro-naphthalen-2-ylamino)-benzoic acid], the results for the half-inhibitory concentration (IC50) in series [1] and in series [3] were over 50 µM and under 10 µM, respectively. The “Kd for MKK4” value in series [4] is on record as “No MKK4 binding affinity”.
For `O=C(O)c1ccc(NC2=C(Cl)C(=O)c3ccccc3C2=O)cc1` [Compound 22f, 4-(3-Chloro-1,4-dioxo-1,4-dihydro-naphthalen-2-ylamino)-benzoic acid], the 50% inhibitory concentration (IC50) is over 50 µM in series [1] and under 10 µM in series [3].
In series [1], `COC(=O)c1ccc(NC2=C(Cl)C(=O)c3ccccc3C2=O)cc1` [Compound 22g, 4-(3-Chloro-1,4-dioxo-1,4-dihydro-naphthalen-2-ylamino)-benzoic acid methyl ester] came in with an IC50 of over 50 µM.
Take `O=C1C(Cl)=C(NCCO)C(=O)c2ccccc21` [Compound 23a, 2-Chloro-3-(2-hydroxy-ethylamino)-1,4-naphthoquinone]: the concentration for half-maximal inhibition (IC50) in series [6] and in series [1] was over 50 µM each time.
Take `O=C1C(Cl)=C(NCCCO)C(=O)c2ccccc21` [Compound 23b, 2-Chloro-3-(3-hydroxy-propylamino)-1,4-naphthoquinone]: the half-maximal inhibitory concentration (IC50) in series [6] and in series [1] was over 50 µM throughout.
As for `O=C1C(Cl)=C(NCCCN2CCOCC2)C(=O)c2ccccc21` [Compound 24, 2-Chloro-3-(3-morpholin-4-yl-propylamino)-1,4-naphthoquinone], the IC50 in series [5], in series [6] and in series [1] was over 50 µM each time. The “Cdc25A IC50 (μM)” value in series [5] (recombinant Cdc25A, OMFP substrate, 25 °C) was “inactive”. Moreover, in series [6] (recombinant Cdc25B, OMFP substrate, 25 °C), the “Cdc25B IC50 (μM)” value was “inactive”.
On to `COC(=O)c1ccc(NC2=C(N3CCCCC3)C(=O)c3ccccc3C2=O)cc1` [Compound 25a, 4-(1,4-Dioxo-3-piperidin-1-yl-1,4-dihydro-naphthalen-2-ylamino)-benzoic acid methyl ester], for which the IC50 in series [1] was over 50 µM. In series [2], this compound yielded an equilibrium dissociation constant (Kd) of over 30 µM.
With `COC(=O)c1ccc(NC2=C(OC)C(=O)c3ccccc3C2=O)cc1` [Compound 25b, 4-(3-Methoxy-1,4-dioxo-1,4-dihydro-naphthalen-2-ylamino)-benzoic acid methyl ester], the 50% inhibitory concentration (IC50) in series [5], in series [6] and in series [1] was over 50 µM throughout.
